Results reported in article PMC10545747, “Development of cyclopeptide inhibitors of cGAS targeting protein-DNA interaction and phase separation” (Nature Communications, 2023).
Values after ≈ are worked out from the molar mass of the structure shown. Values joined by “and” are separate entries in the source; they are usually repeats but may differ in a detail not shown here. Equal entries are not always repeated. Square brackets hold non-standard residues; d marks the D form. Peptide text beside a SMILES is read from it.

Legend:
THP1 cells = assay: in vitro; settings: for Cell viability (Fig. S7a): human, THP1 cells
Protocol: (§1) Cell viability was measured by cell counting kit-8 (TargetMol) according to the manufacturer’s instructions.
(§2) Supplementary Fig. 2. […]
(§3) (e-g) THP1 cells (e), L929 cells (f) and RAW264.7 cells (g) were exposed to the indicated doses of XQ2 for 48h, the cell viability was measured by CCK8 assay. Data are representative of three independent experiments in (a-g). (Data are presented as mean ± SD, n = 3 independent samples in (a-g), **p < 0.01, ***p < 0.001, ****p < 0.0001 using one-way ANOVA with Dunnett’s post hoc test).
(§4) Source data are provided as a Source Data file. […]
(§5) Relative viability(%) XQ2B
(§6) Supplementary Fig. 7. […] (a) THP1 cells were exposed to the indicated doses of XQ2 or XQ2B for 48h. The cell viability was measured by CCK8 assay. […]
(§7) Data are representative of three independent experiments with similar results in (e), or three independent experiments in (a -d, f, g) . (Data are presented as mean ± SD, n = 3 independent samples in (a-d, f, g), ns, not significant, **p < 0.01, ***p < 0.001, ****p < 0.0001 using one-way ANOV A with Dunnett’s post hoc test). Source data are provided as a Source Data file.

in vitro = settings: human, THP1 cells, Cell viability (Fig. S7a)
Protocol: as §1, §2, §3, §4, §5, §6, §7

[1] = Solubility in water (spectrophotometer at 280nm, turbidity); settings: water
Protocol: Supplementary Fig. 7. […] (a) THP1 cells were exposed to the indicated doses of XQ2 or XQ2B for 48h. The cell viability was measured by CCK8 assay. (b) The comparison of solubility of XQ2 and XQ2B. The maximum concentration of XQ2 or XQ2B dissolved in water was measured by a spectrophotometer at 280nm. […]
as §7

Jurkat cells = system: Jurkat cells
Protocol: as §1
(§8) Supplementary Fig. 3. […] (a) L929 cells were pretreated for
(§9) 4 h with DMSO or the indicated doses of XQ2, followed by stimulation with dsDNA for 4 h, and then cell lysates were
(§10) (b) Jurkat cells were exposed to the indicated doses of XQ2, and then stimulated with
(§11) Data are representative of three independent experiments in (a, b). (Data are presented as mean ± SD, n = 3 independent
(§12) provided as a Source Data file.
(§13) (1 picture or pasted object on this page, not shown here)

in vivo = settings: C57BL/6, mouse, iv, 10 mg/kg
Protocol: Whole blood samples were collected in EDTA-K2 surface-coated tubes at 0.083, 0.25, 0.5, 1, 2, 5, 7, 24 h post administration. The results were analyzed by LC-MS.

primary human PBMCs = assay: qPCR of IFNB1 and IL6 mRNA in ISD-stimulated PBMCs; format: cell-based; design: key to IFNB1 mRNA, qPCR, Fig. 2c / IL6 mRNA, qPCR, Fig. 2c / IFNB1 mRNA (Fig. S7f) / IL6 mRNA (Fig. S7f): relative mRNA level, target CT normalized to GAPDH CT
Protocol: The indicated cells were stimulated with either ISD (Sangon Biotech), HSV-1 (Provided by Dr. Zhengfan Jiang), HSV60mer (Sangon Biotech), SATE-cddA[70], 2’3’-cGAMP (Invivogen, Cat# tlrl-nacga23-1), ADU-S100 (MedChemExpress, Cat# HY-12885A) or Poly(I:C) (Invivogen, Cat# tlrl-pic) after XQ2 or XQ2B treatment. Total RNA was isolated from indicated cells that incubated with the drugs for indicated time or mice tissues by using NucleoZOL reagent (MACHEREY-NAGEL) according to the manufacturer’s instructions. The quantifications of mRNA levels were carried out by real-time PCR using a PerfectStart® Uni RT&qPCR Kit (TransGen Biotech) on the QuantStudio 5 qPCR machine (Applied Biosystems). Samples were carried out in triplicate and the target CT values were normalized to GAPDH CT values. Primers of qPCR used in this study can be found in Supplementary Table S2.

L929 cells = assay: ISD-induced autophagy, LC3-II immunoblotting; format: cell-based, mouse
Protocol: Total cell lysates were prepared in RIPA lysis buffer (Beyotime Biotechnology) supplemented with 1 mM PMSF and 1× protease inhibitor cocktail (Yeasen), and nuclear protein was extracted by nuclear protein extraction kit (Solarbio) in accordance with the manufacturer’s instructions. The samples were separated by SDS-PAGE and transferred to the PVDF membrane (Millipore). The membranes were incubated with the indicated primary antibodies at 4 °C overnight and then incubated with an HRP-conjugated anti-rabbit IgG antibody (Cell Signaling, Cat# 7074, 1:5000) or anti-mouse IgG antibody (Cell Signaling, Cat# 7076, 1:5000) at room temperature for 1 h. The signal was visualized by using the NcmECL Ultra kit (New Cell & Molecular Biotech) and then was exposed by using MiniChemi (SageCreation).
as §8, §9, §10, §11, §12, §13

[2] = system: HSV-1-infected THP1 cells; assay: qPCR of IFNB1/CXCL10/IL6 mRNA in THP1 cells stimulated by HSV-1 infection; format: cell-based, human; settings: HSV-1, XQ2B

SMILES: CC(C)C[C@@H]1NC(=O)[C@H](CCCNC(=N)N)NC(=O)[C@H](C(C)C)NC(=O)[C@@H]2CCCN2C(=O)[C@@H](Cc2ccccc2)NC(=O)[C@H](CC(C)C)NC(=O)[C@H](CCCNC(=N)N)NC(=O)[C@H]([C@@H](C)O)NC(=O)[C@H](C)NC(=O)[C@@H](Cc2ccccc2)NC1=O [XQ2B] (cyclo([dF]ATRL[dF]PVRL))
- cytotoxicity (THP1 cells): less cytotoxicity
- IC50 (THP1 cells; 48 h): 89.5 ± 31.9 µM
- Cell viability (Fig. S7a) (THP1 cells; 48 h, 0.195312 µM): 104.965
- Cell viability (Fig. S7a) (THP1 cells; 48 h, 0.390625 µM): 103.952
- Cell viability (Fig. S7a) (THP1 cells; 48 h, 100 µM): 3.53
- Cell viability (Fig. S7a) (THP1 cells; 48 h, 200 µM): 3.549
- Cell viability (Fig. S7a) (THP1 cells; 48 h, 400 µM): 3.541
- viability at 48 h, 0.195312 µM (in vitro): 100%
- viability at 48 h, 0.390625 µM (in vitro): 98%
- viability at 48 h, 0.78125 µM (in vitro): 101%
- viability at 48 h, 1.5625 µM (in vitro): 108%
- viability at 48 h, 3.125 µM (in vitro): 97.6%
- viability at 48 h, 6.25 µM (in vitro): 113%
- viability at 48 h, 12.5 µM (in vitro): 100%
- viability at 48 h, 25 µM (in vitro): 104%
- viability at 48 h, 50 µM (in vitro): 68.2%
- viability at 48 h, 100 µM (in vitro): 3.61%
- viability at 48 h, 200 µM (in vitro): 3.63%
- viability at 48 h, 400 µM (in vitro): 3.62%
- Concentration (solubility, Fig. S7b) [1]: 2890 µg/mL and 2940 µg/mL
- solubility [1]: higher solubility compared to XQ2
- solubility ([1]; Concentration (solubility, Fig. S7b)): 2850 µg/mL (≈ 2370 µM)
- ISD-induced cell death (Jurkat cells): markedly reduced ISD-induced autophagy and cell death
- half-life (in vivo): 1.1 h
- level at 0.083 h (in vivo; Conc (ng/ml), Fig. S11a): 101 µg/mL
- level at 0.25 h (in vivo; Conc (ng/ml), Fig. S11a): 63.6 µg/mL
- level at 0.5 h (in vivo; Conc (ng/ml), Fig. S11a): 50.4 µg/mL
- ISD-induced IFNB1 and IL6 expression in PBMCs (primary human PBMCs; 10 μM): significantly inhibit the activation of cGAS induced by ISD
- IFNB1 mRNA (Fig. S7f) (primary human PBMCs; PBMCs, ISD+XQ2B): 841.807 and 913.377 and 771.009
- IL6 mRNA (Fig. S7f) (primary human PBMCs; PBMCs, ISD+XQ2B): 1185.13 and 642.626 and 1199.71
- ISD-induced autophagy, LC3-II formation (L929 cells): markedly reduced ISD-induced autophagy and cell death
- IFNB1 mRNA level (Fig. S7c) [2]: 7.282 and 8.679 and 8.662
